In PMC5218480 (PLoS ONE, 2017):

System: MV-4-11 cells
Assay: Gene expression microarray analysis (Affymetrix PrimeView) and GSEA
Format: cell-based, human
Parameters: RFU PODN (11730768_x_at) / Fold change /veh PODN (11730768_x_at) / RFU LINC00158 (11744669_a_at) / Fold change /veh LINC00158 (11744669_a_at) / RFU DUSP10 (11751237_a_at) / Fold change /veh DUSP10 (11751237_a_at) / RFU ID3 (11757404_x_at) / Fold change /veh ID3 (11757404_x_at) / RFU PLEKHG5 (11737974_s_at) / Fold change /veh PLEKHG5 (11737974_s_at) / RFU LRRC4B (11730491_at) / Fold change /veh LRRC4B (11730491_at) / RFU GIMAP4 (11747438_a_at) / Fold change /veh GIMAP4 (11747438_a_at) / RFU KRT8 (11758183_x_at) / Fold change /veh KRT8 (11758183_x_at) / RFU CNN1 (11734310_a_at) / Fold change /veh CNN1 (11734310_a_at) / RFU VPS37D (11726825_at) / Fold change /veh VPS37D (11726825_at) / RFU C10orf10 (11716522_x_at) / Fold change /veh C10orf10 (11716522_x_at) / RFU KIR2DL2 /// KIR2DL4 /// KIR2DL5A /// KIR2DL5B /// KIR2DS1 /// KIR2DS2 /// KIR2DS3 /// KIR2DS4 /// KIR3DL3 /// KIR3DL3 /// KIR3DS1 (11738374_at) / Fold change /veh KIR2DL2 /// KIR2DL4 /// KIR2DL5A /// KIR2DL5B /// KIR2DS1 /// KIR2DS2 /// KIR2DS3 /// KIR2DS4 /// KIR3DL3 /// KIR3DL3 /// KIR3DS1 (11738374_at) / RFU C1QL1 (11718748_at) / Fold change /veh C1QL1 (11718748_at) / RFU TMPRSS4 (11747572_a_at) / Fold change /veh TMPRSS4 (11747572_a_at) / RFU HAMP (11756126_x_at) / Fold change /veh HAMP (11756126_x_at) / RFU RNFT2 (11725882_a_at) / Fold change /veh RNFT2 (11725882_a_at) / RFU NR4A2 (11747474_a_at) / Fold change /veh NR4A2 (11747474_a_at) / RFU ABCC12 (11746883_a_at) / Fold change /veh ABCC12 (11746883_a_at) / RFU TMEM136 (11760407_x_at) / Fold change /veh TMEM136 (11760407_x_at) / RFU CLDN22 /// WWC2 (11732394_at) / Fold change /veh CLDN22 /// WWC2 (11732394_at) / RFU HLA-DPB1 (11760878_x_at) / Fold change /veh HLA-DPB1 (11760878_x_at) / RFU SPINT1 (11716480_a_at) / Fold change /veh SPINT1 (11716480_a_at) / RFU GAP43 (11754022_s_at) / Fold change /veh GAP43 (11754022_s_at) / RFU A4GNT (11735810_at) / Fold change /veh A4GNT (11735810_at) / RFU PRB3 (11715151_x_at) / Fold change /veh PRB3 (11715151_x_at) / RFU TUBB4B (11761932_at) / Fold change /veh TUBB4B (11761932_at) / RFU CAPN14 (11732068_a_at) / Fold change /veh CAPN14 (11732068_a_at) / RFU TMCC2 (11721928_a_at) / Fold change /veh TMCC2 (11721928_a_at) / RFU IRGQ (11745062_a_at) / Fold change /veh IRGQ (11745062_a_at) / RFU FAM174B (11720279_a_at) / Fold change /veh FAM174B (11720279_a_at) / RFU TMPRSS4 (11748680_a_at) / Fold change /veh TMPRSS4 (11748680_a_at) / RFU FAM212B (11763350_a_at) / Fold change /veh FAM212B (11763350_a_at) / RFU PLEKHG5 (11743358_a_at) / Fold change /veh PLEKHG5 (11743358_a_at) / RFU ZSCAN30 (11745921_a_at) / Fold change /veh ZSCAN30 (11745921_a_at) / RFU CMKLR1 (11741424_a_at) / Fold change /veh CMKLR1 (11741424_a_at) / RFU LOC101060620 /// MAPK8IP1 (11723275_at) / Fold change /veh LOC101060620 /// MAPK8IP1 (11723275_at) / RFU SPTSSB (11747773_x_at) / Fold change /veh SPTSSB (11747773_x_at) / RFU PRSS12 (11739890_at) / Fold change /veh PRSS12 (11739890_at) / RFU BIN1 (11741810_x_at) / Fold change /veh BIN1 (11741810_x_at) / RFU WNT11 (11732464_a_at) / Fold change /veh WNT11 (11732464_a_at) / RFU C10orf10 (11716521_a_at) / Fold change /veh C10orf10 (11716521_a_at) / RFU C5orf56 (11738089_at) / Fold change /veh C5orf56 (11738089_at) / RFU CYB561 (11721691_x_at) / Fold change /veh CYB561 (11721691_x_at) / RFU ANKRD19P (11752326_a_at) / Fold change /veh ANKRD19P (11752326_a_at) / RFU OR2T12 /// OR2T33 /// OR2T8 (11738714_s_at) / Fold change /veh OR2T12 /// OR2T33 /// OR2T8 (11738714_s_at) / RFU VCAN (11748164_a_at) / Fold change /veh VCAN (11748164_a_at) / RFU JSRP1 (11732532_at) / Fold change /veh JSRP1 (11732532_at) / RFU KRTAP10-11 (11738290_x_at) / Fold change /veh KRTAP10-11 (11738290_x_at) / RFU MYO3A (11730013_a_at) / Fold change /veh MYO3A (11730013_a_at) / RFU EBF3 (11725865_a_at) / Fold change /veh EBF3 (11725865_a_at) / RFU CAMK2N1 (11719241_x_at) / Fold change /veh CAMK2N1 (11719241_x_at) / RFU C5orf56 (11738088_a_at) / Fold change /veh C5orf56 (11738088_a_at) / RFU OLFML3 (11715873_a_at) / Fold change /veh OLFML3 (11715873_a_at) / RFU LOC100653217 /// NTM (11731650_a_at) / Fold change /veh LOC100653217 /// NTM (11731650_a_at) / RFU MAPK11 (11762145_a_at) / Fold change /veh MAPK11 (11762145_a_at) / RFU FIZ1 (11724087_x_at) / Fold change /veh FIZ1 (11724087_x_at) / RFU OASL (11726364_x_at) / Fold change /veh OASL (11726364_x_at) / RFU SOX15 (11748057_x_at) / Fold change /veh SOX15 (11748057_x_at) / RFU CD79A (11719716_a_at) / Fold change /veh CD79A (11719716_a_at) / RFU HIST1H1D (11736915_at) / Fold change /veh HIST1H1D (11736915_at) / RFU CASKIN2 (11723855_a_at) / Fold change /veh CASKIN2 (11723855_a_at) / RFU LOC730098 (11760151_x_at) / Fold change /veh LOC730098 (11760151_x_at) / RFU OR4N2 (11742367_at) / Fold change /veh OR4N2 (11742367_at) / RFU PRRT2 (11749266_a_at) / Fold change /veh PRRT2 (11749266_a_at) / RFU SNX32 (11753110_a_at) / Fold change /veh SNX32 (11753110_a_at) / RFU CDHR5 (11726645_a_at) / Fold change /veh CDHR5 (11726645_a_at) / RFU RCAN1 (11760418_a_at) / Fold change /veh RCAN1 (11760418_a_at) / RFU FAM167A (11723789_a_at) / Fold change /veh FAM167A (11723789_a_at) / RFU FAM26E (11764081_at) / Fold change /veh FAM26E (11764081_at) / RFU ISYNA1 (11749810_s_at) / Fold change /veh ISYNA1 (11749810_s_at) / RFU ACY1 (11761880_at) / Fold change /veh ACY1 (11761880_at) / RFU 11764098_at / Fold change /veh 11764098_at / RFU SAMD14 (11745864_x_at) / Fold change /veh SAMD14 (11745864_x_at) / RFU NPB (11741838_a_at) / Fold change /veh NPB (11741838_a_at) / RFU TMPRSS6 (11731388_a_at) / Fold change /veh TMPRSS6 (11731388_a_at) / RFU KRTAP10-2 (11738614_at) / Fold change /veh KRTAP10-2 (11738614_at) / RFU ARHGAP8 /// PRR5-ARHGAP8 (11727945_x_at) / Fold change /veh ARHGAP8 /// PRR5-ARHGAP8 (11727945_x_at) / RFU KRTAP5-7 /// NADSYN1 (11734609_at) / Fold change /veh KRTAP5-7 /// NADSYN1 (11734609_at) / RFU RASL12 (11751679_a_at) / Fold change /veh RASL12 (11751679_a_at) / RFU CDKN2B (11736163_a_at) / Fold change /veh CDKN2B (11736163_a_at) / RFU PRF1 (11729649_at) / Fold change /veh PRF1 (11729649_at) / RFU, ZNF638 /// ZNF638-IT1 / Fold change vs veh, ZNF638 /// ZNF638-IT1 / RFU, PANK3 / Fold change vs veh, PANK3 / RFU, SH3YL1 / Fold change vs veh, SH3YL1 / RFU, ZEB2 / Fold change vs veh, ZEB2 / RFU, NRIP1 / Fold change vs veh, NRIP1 / RFU, PTTG1IP / Fold change vs veh, PTTG1IP / RFU, CAPN2 / Fold change vs veh, CAPN2 / RFU, MED14 / Fold change vs veh, MED14 / RFU, SNORA58 / Fold change vs veh, SNORA58 / RFU, C1orf63 / Fold change vs veh, C1orf63 / RFU, LRRFIP1 / Fold change vs veh, LRRFIP1 / RFU, NDUFAF7 / Fold change vs veh, NDUFAF7 / RFU, SLC12A2 / Fold change vs veh, SLC12A2 / RFU, IBTK / Fold change vs veh, IBTK / RFU, ESF1 / Fold change vs veh, ESF1 / Fold change vs veh, TMEM50B / RFU, TAOK1 / Fold change vs veh, TAOK1 / RFU, ACBD3 / Fold change vs veh, ACBD3 / RFU, TMA16 / Fold change vs veh, TMA16 / RFU, RWDD3 / Fold change vs veh, RWDD3 / RFU, BCAT1 / Fold change vs veh, BCAT1 / RFU, EDEM3 / Fold change vs veh, EDEM3 / RFU, TMEM33 / Fold change vs veh, TMEM33 / RFU, WDR75 / Fold change vs veh, WDR75 / RFU, AHCTF1 / Fold change vs veh, AHCTF1 / RFU, TFRC / Fold change vs veh, TFRC / RFU, ZDHHC17 / Fold change vs veh, ZDHHC17 / RFU, NOM1 / Fold change vs veh, NOM1 / RFU, ARL8B / Fold change vs veh, ARL8B / RFU, ZBTB11 / Fold change vs veh, ZBTB11 / RFU, TAMM41 / Fold change vs veh, TAMM41 / RFU, KIAA1704 /// LOC100996395 / Fold change vs veh, KIAA1704 /// LOC100996395 / RFU, ING1 / Fold change vs veh, ING1 / RFU, TRMT61B / Fold change vs veh, TRMT61B / RFU, FUBP3 / Fold change vs veh, FUBP3 / RFU, TP53 / Fold change vs veh, TP53 / RFU, TNKS2 / Fold change vs veh, TNKS2 / RFU, ZFP14 / Fold change vs veh, ZFP14 / RFU, ACTR2 / Fold change vs veh, ACTR2 / RFU, PPP3R1 / Fold change vs veh, PPP3R1 / RFU, PIK3R1 / Fold change vs veh, PIK3R1 / RFU, HNRNPA1 / Fold change vs veh, HNRNPA1 / RFU, RNF170 / Fold change vs veh, RNF170 / RFU, ZNF28 / Fold change vs veh, ZNF28 / RFU, RNGTT / Fold change vs veh, RNGTT / RFU, OGT / Fold change vs veh, OGT / RFU, BRD1 / Fold change vs veh, BRD1 / RFU, MARS / Fold change vs veh, MARS / RFU, ZNF655 / Fold change vs veh, ZNF655 / RFU, FAHD1 / Fold change vs veh, FAHD1 / RFU, BDP1 / Fold change vs veh, BDP1 / RFU, LRRCC1 / Fold change vs veh, LRRCC1 / RFU, ARID1A / Fold change vs veh, ARID1A / RFU, ZNF146 / Fold change vs veh, ZNF146 / RFU, ZNF330 / Fold change vs veh, ZNF330 / RFU, GPN3 / Fold change vs veh, GPN3 / RFU, C9orf123 / Fold change vs veh, C9orf123 / RFU, N4BP2L2 / Fold change vs veh, N4BP2L2 / RFU, ARFIP1 / Fold change vs veh, ARFIP1 / RFU, FAM179B / Fold change vs veh, FAM179B / RFU, BCL10 / Fold change vs veh, BCL10 / RFU, UHRF1BP1L / Fold change vs veh, UHRF1BP1L / RFU, BET1 / Fold change vs veh, BET1 / RFU, CNOT2 / Fold change vs veh, CNOT2 / RFU, ZNF268 / Fold change vs veh, ZNF268 / Fold change vs veh, ZNF507 / RFU, DGCR2 / Fold change vs veh, DGCR2 / RFU, WDSUB1 / Fold change vs veh, WDSUB1 / Fold change vs veh, HSP90B1 /// MIR3652 / RFU, ADSS / Fold change vs veh, ADSS / RFU, GK / Fold change vs veh, GK / RFU, ZNF148 / Fold change vs veh, ZNF148 / RFU, TAF9 / Fold change vs veh, TAF9 / RFU, SLC1A5 / Fold change vs veh, SLC1A5 / RFU, SLMO2 / Fold change vs veh, SLMO2 / RFU, ABCC4 / Fold change vs veh, ABCC4 / RFU, LOC101060439 /// RAP1B / Fold change vs veh, LOC101060439 /// RAP1B / RFU, RFX7 / Fold change vs veh, RFX7 / RFU, GTPBP10 / Fold change vs veh, GTPBP10 / RFU, CNEP1R1 / Fold change vs veh, CNEP1R1 / RFU, BIVM-ERCC5 /// ERCC5 / Fold change vs veh, BIVM-ERCC5 /// ERCC5 / RFU, ILF3 / Fold change vs veh, ILF3 / RFU 11762660_at / Fold change /veh 11762660_at / RFU VCAN (11757783_s_at) / Fold change /veh VCAN (11757783_s_at) / RFU DDX43 (11728927_at) / Fold change /veh DDX43 (11728927_at) / RFU KRT8 (11758188_x_at) / Fold change /veh KRT8 (11758188_x_at) / RFU NKD1 (11759106_at) / Fold change /veh NKD1 (11759106_at) / RFU SRD5A1 (11742802_a_at) / Fold change /veh SRD5A1 (11742802_a_at) / RFU TPSAB1 /// TPSB2 (11721975_s_at) / Fold change /veh TPSAB1 /// TPSB2 (11721975_s_at) / RFU GSTM3 (11746129_a_at) / Fold change /veh GSTM3 (11746129_a_at) / RFU IL23R (11737362_x_at) / Fold change /veh IL23R (11737362_x_at) / RFU TMEM51 (11727254_a_at) / Fold change /veh TMEM51 (11727254_a_at) / RFU PIWIL2 (11732686_x_at) / Fold change /veh PIWIL2 (11732686_x_at) / RFU ORM1 (11744905_x_at) / Fold change /veh ORM1 (11744905_x_at) / RFU CCDC152 (11743942_at) / Fold change /veh CCDC152 (11743942_at) / RFU ECM1 (11717891_a_at) / Fold change /veh ECM1 (11717891_a_at) / RFU IL23R (11748794_a_at) / Fold change /veh IL23R (11748794_a_at) / RFU TNFAIP8L3 (11732012_x_at) / Fold change /veh TNFAIP8L3 (11732012_x_at) / RFU MBOAT4 (11741988_at) / Fold change /veh MBOAT4 (11741988_at) / RFU 11764193_at / Fold change /veh 11764193_at / RFU TMEM53 (11763286_at) / Fold change /veh TMEM53 (11763286_at) / RFU MAGEB2 (11727129_at) / Fold change /veh MAGEB2 (11727129_at) / RFU TMEM200A (11744735_a_at) / Fold change /veh TMEM200A (11744735_a_at) / RFU CCDC152 (11751479_a_at) / Fold change /veh CCDC152 (11751479_a_at) / RFU FAM211A (11726209_a_at) / Fold change /veh FAM211A (11726209_a_at) / RFU RGS16 (11746705_a_at) / Fold change /veh RGS16 (11746705_a_at) / RFU VCAN (11755009_s_at) / Fold change /veh VCAN (11755009_s_at) / RFU RHOB (11743442_s_at) / Fold change /veh RHOB (11743442_s_at) / RFU RGS16 (11720943_a_at) / Fold change /veh RGS16 (11720943_a_at) / RFU RGS16 (11720944_at) / Fold change /veh RGS16 (11720944_at) / RFU, VPS4B / Fold change vs veh, VPS4B / RFU, CREB1 / Fold change vs veh, CREB1 / RFU, DNAJC13 / Fold change vs veh, DNAJC13 / RFU, GNAQ / Fold change vs veh, GNAQ / RFU, CDK5R1 / Fold change vs veh, CDK5R1 / RFU, ZRANB3 / Fold change vs veh, ZRANB3 / RFU, CUL4A / Fold change vs veh, CUL4A / RFU, CCNY / Fold change vs veh, CCNY / RFU, UFL1 / Fold change vs veh, UFL1 / RFU, COG3 / Fold change vs veh, COG3 / RFU, DIAPH2 / Fold change vs veh, DIAPH2 / RFU, SKA2 / Fold change vs veh, SKA2 / RFU, AFF3 / Fold change vs veh, AFF3 / RFU, LMF1 / Fold change vs veh, LMF1 / RFU, IPO11 / Fold change vs veh, IPO11 / RFU, DFFB / Fold change vs veh, DFFB / RFU, FOXP1 / Fold change vs veh, FOXP1 / RFU, CARD8 / Fold change vs veh, CARD8 / RFU, STRN3 / Fold change vs veh, STRN3 / RFU, ADK / Fold change vs veh, ADK / RFU, RASSF2 / Fold change vs veh, RASSF2 / RFU, WIPF1 / Fold change vs veh, WIPF1 / RFU, LARP1B / Fold change vs veh, LARP1B / RFU, RASA1 / Fold change vs veh, RASA1 / RFU, RB1 / Fold change vs veh, RB1 / RFU, PPFIA1 / Fold change vs veh, PPFIA1 / RFU, MAT2A / Fold change vs veh, MAT2A / RFU, CCT5 / Fold change vs veh, CCT5 / RFU, WDR92 / Fold change vs veh, WDR92 / RFU, CUX1 / Fold change vs veh, CUX1 / RFU, TTC7A / Fold change vs veh, TTC7A / RFU, TMEM135 / Fold change vs veh, TMEM135 / RFU, DEPTOR / Fold change vs veh, DEPTOR / RFU, CPM / Fold change vs veh, CPM / RFU, DNAJB6 / Fold change vs veh, DNAJB6 / RFU, CACNA2D3 / Fold change vs veh, CACNA2D3 / RFU, DTX4 / Fold change vs veh, DTX4 / RFU, TFCP2 / Fold change vs veh, TFCP2 / RFU, GMCL1 /// GMCL1P1 / Fold change vs veh, GMCL1 /// GMCL1P1 / RFU, AEBP2 / Fold change vs veh, AEBP2 / RFU, SNHG1 /// SNORD22 /// SNORD25 /// SNORD26 /// SNORD27 /// SNORD28 /// SNORD29 /// SNORD31 / Fold change vs veh, SNHG1 /// SNORD22 /// SNORD25 /// SNORD26 /// SNORD27 /// SNORD28 /// SNORD29 /// SNORD31 / Fold change (Aza/veh), C12orf56 (ProbeSet 11735607_a_at) / Fold change (ACY-1035/veh), C12orf56 (ProbeSet 11735607_a_at) / Fold change (Aza/veh), FGFR1OP (ProbeSet 11751329_s_at) / Fold change (ACY-1035/veh), FGFR1OP (ProbeSet 11751329_s_at) / Fold change (Aza/veh), VPS36 (ProbeSet 11739960_a_at) / Fold change (ACY-1035/veh), VPS36 (ProbeSet 11739960_a_at) / RFU SYPL1 (11715823_x_at) / Fold change /veh SYPL1 (11715823_x_at) / RFU IGFBP7 (11715501_s_at) / Fold change /veh IGFBP7 (11715501_s_at) / RFU REEP3 (11722064_at) / Fold change /veh REEP3 (11722064_at) / RFU IGLL1 (11728026_x_at) / Fold change /veh IGLL1 (11728026_x_at): dose or concentration left out as unconfirmed
Conditions: ProbeSet 11719493_s_at; LIST B

Nc1ccc(-c2cccs2)cc1NC(=O)c1ccc2c(c1)cc(C1CC1)n2CCN1CCOCC1 [ACY-1035]
Fold change vs veh, TAF9: 0.84
